Several values for one entry are separate records, joined by “and”; a condition that tells them apart may be missing. Identical values can stand only once.
Assays:
[1] = tested on: LPSRa (LPS from E. coli EH100, Ra mutant); assay: LPS affinity assay (BODIPY TR cadaverine displacement); format: binding; settings: 50% of BC probe bound to LPS displaced; Mean ± SE
Source text: (§1) Lipopolysaccharides (LPS) from E. coli O111:B4 (O-LPS), EH100 (Ra mutant), and J5 (Rc mutant), porcine mucin, Mueller Hinton broth (MHB) and Thiazolyl Blue Tetrazolium […] (MTT) were purchased at Sigma-Aldrich (Saint Louis, MO, USA). Colistin sulphate and Dimethyl sulfoxide (DMSO) were from Apollo Scientific (Stockport, UK). BODIPY® TR cadaverine (BC) were from Molecular Probes (Eugene, OR, USA). Mouse TNF-α ELISA Kit (MBS175787, MyBioSource, San Diego, CA, USA) and Mouse LPS ELISA Kit (MBS7700668, MyBioSource, San Diego, CA, USA) were from bioNova científica s.l. (Madrid, Spain) Human TNF-α ELISA set was from BD Biosciences (555212, BD OptEIA^TM, San Jose, CA, USA). Aspidasept® (pep19-2.5) is an antibacterial/anti-inflammatory peptide drug ([…], with C-terminal amide).
(§2) The LPS affinity was assessed using the fluorescent probe BC by an adaptation of the displacement assay reported. Peptides and colistin were serially diluted in a 96-well fluorescence plate from 20 to 0.16 μM in Tris/HCl 50 mM PH 7.4. Next, LPS and BC diluted in the same buffer were added to have the final concentration of 50 μg/mL and 5 μM, respectively. Fluorescence measurements were performed on Tecan Microplate Reader Spark® at 580 nm of excitation wavelength and 620 nm of the emission wavelength at 5 nm for optimal gain. Each test was performed in triplicate.

[2] = tested on: LPSRc (LPS from E. coli J5, Rc mutant); assay: as above; format: binding; settings: 50% of BC probe bound to LPS displaced; Mean ± SE
Source text: as §1, §2

[3] = tested on: O-LPS (LPS from E. coli O111:B4); assay: as above; format: binding; settings: 50% of BC probe bound to LPS displaced; Mean ± SE
Source text: as §1, §2

A. baumannii [4] = assay: Efficacy assay in murine acute systemic infection model (survival); format: in vivo, Balb/c mice; settings: 10^8 CFU/kg A. baumannii, colistin 15 mg/kg
Method: An aliquot from an A. baumannii stock stored in 15% glycerol at −80 °C was taken to culture in 3 mL LB overnight at 250 rpm, 37 °C. Next, OD600 reading of A. baumannii overnight culture was performed to adjust to the number of bacteria required (CFU/mL) and then diluted by half with the same volume of 10% porcine mucin, to obtain a solution of selected CFU/mL in 5% mucin for mice inoculation. […] The inoculating volume was decided based on the body weight of each animal (10 mL/kg).
When the sum of the scores reached a maximum value of 7, the mice were euthanized following ethical principles. The infection was first tested at a concentration of 10^9 CFU/kg and then set at 10^7 CFU/kg and 10^8 CFU/kg. […] We also performed an extra assay where mice infected by 10^8 CFU/kg of A. baumannii were treated with colistin, used as a positive control.
To avoid bias, the reagents for these four groups were given to technicians in advance and renumbered randomly, designated as A, B, C, D, respectively. […]
The clinical symptoms were assessed through a scoring system, which contains 9 items, including changes of body weight, behavior, breathing, skin, hair, eyes and gastrointestinal status (see full list at Table S2). […] During the study, when an animal obtained a score of 3 in any of the parameters assessed with a maximum score of 3, euthanasia was carried out to apply the endpoint criteria. […]

A. baumannii [5] = format: cell-based, Acinetobacter baumannii; settings: 24 h incubation, MHB, triplicate
Source text: (§3) A. baumannii strain (CECT 452, Valencia, Spain, ATCC 15308, Manassas, VA, USA) and Pseudomonas aeruginosa (P. aeruginosa) strain (CECT 4122, Valencia, Spain, ATCC 15692, Manassas, VA, USA) were from the Colección Española de Cultivos Tipo (CECT, Valencia, Spain). The Escherichia coli (E. coli) BL21 (DE3) strain was from Novagen (Darmstadt, Germany). MRC-5 cells were from the American Type Culture Collection (ATCC, Manassas, VA, USA) and HEK293T cell line was kindly provided by Dr. Raquel Pequerul (UAB, Barcelona, Spain).
(§4) The MIC is defined as the lowest concentration of one reagent to prevent visible growth of bacteria. The MIC determination was followed by the protocol described previously. Briefly, bacteria in exponential growth were used to prepare a suspension in MHB with the approximate number of 5 × 10^5 CFU/mL. Next, an aliquot of 90 μL of bacteria suspension was added into each well of the 96-well polypropylene plate. Immediately, 10 μL of peptide diluted by 0.01% acetic acid was added to the corresponding well to have a final concentration ranging from 20 to 0.16 μM. The plate was incubated for 24 h at 37 °C, 100 rpm. The presence or absence of bacterial growth was visually inspected and confirmed by reading OD600 with Tecan Microplate Reader Spark®. Each test was performed in triplicate.

[6] = cited from earlier work
HEK293T cells = tested on: HEK293T cells
Method: (§5) Cytotoxicity was measured for the MRC-5 and HEK293T cell lines by MTT assay. Cells were grown in 5% CO2 at 37 °C with MRC-5 cell line maintained in MEMα and HEK293T in DMEM/F-12 media, both of which were supplemented with 10% FBS. The cells were passaged in 25 cm^2 or 75 cm^2 flasks to prepare 96-well plates with 3 × 10^4 cells/well, which were incubated overnight. Next, serial dilutions of ECPep-D and ECPep-2D-Orn were added to have a final concentration ranging from 100 to 0.78 μM (375 μg/mL to 3 μg/mL) and colistin was added at final concentrations ranging from 300 to 2.34 μM (380 μg/mL to 3 μg/mL) in corresponding wells. After incubation to the specified time, the medium of the plate was replaced by fresh medium containing 0.5 mg/mL MTT solution and the mixture was incubated for 2.5 h in 5% CO2 at 37 °C. The medium was then removed, and formazan was dissolved by adding DMSO. The optical density (OD) was recorded by using a Victor^3 plate reader (PerkinElmer, Waltham, MA, USA) set at 540 nm and 620 nm as a reference. Each test was performed in triplicate.

MRC-5 cells = assay: Cytotoxicity assay (MTT); settings: MTT, Mean ± SE, N.D. = no reduction in cell viability detected at the highest concentration
Method: as §5

E. coli = format: cell-based, Escherichia coli; settings: 24 h incubation, MHB, triplicate
Source text: as §3, §4

LPS = LPS in serum of infected mice by ELISA; format: in vivo, Balb/c mice; settings: second efficacy assay, colistin 15 mg/kg versus ECPep-D 20 mg/kg, p < 0.1
Method: In the second efficacy study, the blood of animals that either died for severe clinical symptoms or were euthanized at the end of the assay, were collected for testing TNF-α and LPS levels by ELISA. In order to check the levels of TNF-α and free LPS, only serum was analyzed, after discarding blood cells by centrifugation. The blood from mice was centrifuged at 3200 rpm for 30 min and the supernatants were collected carefully to ensure that there were no sediments left. Mouse ELISA kits for TNF-α and LPS were used.
According to the description of the manufacturer, LPS level determination is based on the principle of double antibody sandwich technology, where the microplates pre-coated with specific antibodies were used. Following addition of serum samples to the wells, the HRP-Conjugate reagent was added to form an immune complex. After incubation and washing, the unbound enzyme was removed. Then, chromogen substrates were added successively and optical density was recorded using microplate reader set at 450 nm. Sample readings were corrected using the baseline corresponding to serum of mice neither infected nor treated. A calibration standard curve was prepared and final calculated values were positively correlated with the concentration of LPS. Two replicates were performed according to the protocols for the representation of the standard curve and the sample testing.

P. aeruginosa = format: cell-based, Pseudomonas aeruginosa; settings: 24 h incubation, MHB, triplicate
Source text: as §3, §4

## Colistin sulphate [reference compound]
[1]
  EC50: 13.1 ± 0.4 µM
  EC50 LPSRa: 16.63 ± 0.50 µg/mL
[2]
  EC50: 19.2 ± 0.34 µM
  EC50 LPSRc: 24.31 ± 0.42 µg/mL
[3]
  EC50: 7.87 ± 0.33 µM
  EC50 O-LPS: 9.97 ± 0.42 µg/mL
A. baumannii [4]; i.p. once every 24 h for 3 days from 2 h post inoculum, peptides 10 mg/kg, 3 days
  survival rate, first efficacy assay: 100%
A. baumannii [4]; single i.p. dose 2 h post inoculum, peptides 20 mg/kg, 72 h
  survival rate after 3 days (72 h), second efficacy assay: 100%
A. baumannii [5]
  MIC A. baumannii: 0.31 μM and 0.40 μg/mL
[6]; Swiss albino mice, single injection
  LD50 by intraperitoneal administration: 20 to 30 mg/kg
[6]; mice receiving 32 mg/(kg × day), after three doses
  deaths from neurotoxicity: three of twelve mice died
[6]; mice, ref U.S. National Library of Medicine ChemIDplus 1264-72-8
  LD50 for the intraperitoneal route: 21.8 mg/kg
HEK293T cells; MTT, Mean ± SE
  IC50 (HEK293T) 48h: > 380.26 µg/mL
HEK293T cells; read-out: IC50 (HEK293T) 48h, MTT, Mean ± SE
  IC50: > 300 µM
MRC-5 cells; 24 h
  LD50 (MRC-5) 24 h: >300 μM and >380.26 μg/mL
MRC-5 cells; 48 h
  LD50 (MRC-5) 48 h: >300 μM and >380.26 μg/mL
E. coli
  MIC E. coli: 5 μM and 6.34 μg/mL
LPS
  concentration of LPS in serum, Day 3: slightly increased
P. aeruginosa
  MIC P. aeruginosa: 0.31 μM and 0.40 μg/mL
